Data set [1] has as its system SOCE in CF neutrophils. Conditions: in vitro CFTR potentiation; ref [12]; cited from earlier work. The text has this:
We have previously reported that Ca^2+ signaling is influenced by estrogen in pwCF airways. […] Circulating neutrophil levels fluctuate during the menstrual cycle and sex-specific differences in neutrophil function have previously been described. It may have been that all our female participants had low circulating estrogen levels at time of sample, or that SOCE in neutrophils is less-estrogen sensitive than SOCE in airway epithelia. Importantly, most CF participants were taking CFTR modu ...

Data set [2] concerns CF neutrophils. As to conditions: ex vivo treatment; ref [12]; cited from earlier work. The text has this: Since SPLUNC1 is rapidly degraded ...
The test system of data set [3] is SOCE/Orai1 in non-CF peripheral blood neutrophils. Description: Fluo-4 Ca2+ assay, global thapsigargin-stimulated Ca2+ response (SOCE), non-CF neutrophils. The class given is cell-based, human. Conditions: 1 μM thapsigargin. The protocol: (§1) Neutrophils were immediately isolated by negative selection from deidentified blood samples using an EasySep human neutrophil isolation kit (Stem Cell Technologies) as described. Cytosolic Ca^2+ was measured using Fluo-4 as described. Protein lysate from isolated blood neutrophils was characterized by liquid chromatography with tandem mass spectrometry (LC-MS/MS) as described. Degranulation products in media were quantified by Luminex assay using a custom Bio-Plex human kit (BioRad) per the manufacturer’s protocol […]. Detailed methods for all experiments and measurements are provided in an online data supplement.
(§2) Isolated neutrophils were incubated with peptide or vehicle control for 3 h. For the final hour of treatment, cells were loaded with Fluo-4 direct (Thermofisher) for 45 min at 37°C and 15 min at room temperature as described.
(§3) Fluo-4 Ca^2+ assays. Isolated neutrophils were incubated with peptide or vehicle control for 3 h. For the final hour of treatment, cells were loaded with Fluo-4 direct (Thermofisher) for 45 min at 37°C and 15 min at room temperature. For global Ca^2+ measurements, baseline fluorescent readings were made for 2 min (1 read every 30 s) using a Tecan Infinite M1000 plate reader (ex 494 em 516 nm, bandwidth 5 nm) before thapsigargin (Sigma-Aldrich) was added and the change in emission was recorded for 10 min (1 read every 30 s). To isolate phases of store operated Ca^2+ entry, cells underwent 3 rounds of centrifugation and resuspension in Ca^2+-free Ringer’s solution to remove extracellular Ca^2+. Baseline fluo-4 fluorescence was read for 2 min before cell were stimulated with thapsigargin (Tocris). Reads continued for ~5 min before 1.2 mM Ca^2+ was added to the extracellular solution and SOCE was measured for ~10 mins. For analysis, all fluo-4 fluorescence reads are normalized to baseline.

In data set [4] the test system is SOCE/Orai1 in CF peripheral blood neutrophils. The data set is described as follows: Fluo-4 Ca2+ assay, global thapsigargin-stimulated Ca2+ response (SOCE), CF neutrophils. Type of data set: cell-based, human. As to conditions: CF, 1 μM thapsigargin. The protocol:
as §1, §2, §3

Data set [5] relates to Ca2+ influx in non-CF neutrophils. Description: Fluo-4 Ca2+ influx across the plasma membrane, non-CF neutrophils. The class given is cell-based, human. As to conditions: thapsigargin 1 μM, regardless of genotype. Here is the method: as §2
(§4) Fig. 3. ELD607 inhibits SOCE in non-CF and CF neutrophils. (A) and (B) Mean changes in fluo-4 fluorescence as a marker of cytoplasmic Ca^2+ levels in non-CF and CF neutrophils respectively before and after stimulation with 1 μM thapsigargin (Tg). Before stimulation, neutrophils were exposed to vehicle (0.1% DMSO in PBS), 10 μM ELD607 or scrambled peptide (control) for 3 h. N = 10 non-CF and 21 CF donors. Stats show ELD607 vs vehicle or scrambled peptide based on color. (C-F) Isolation of ER Ca^2+ release vs Ca^2+ influx across the plasma membrane in non-CF and CF Neutrophils. Neutrophils were stimulated with thapsigargin (1 μM) in the absence of extracellular Ca^2+ to allow the release of Ca^2+ stores to be measured. Extracellular Ca^2+ was then returned so that extracellular Ca^2+ influx could be measured. (C) Mean fold change in Fluo-4 fluorescence during ER store release in non-CF and CF neutrophils. […] (E) Mean fold change in fluo-4 fluorescence during Ca^2+ influx in non-CF and CF neutrophils. […]
(§5) SOCE has 2 phases: release of Ca^2+ from ER stores and Ca^2+ influx from the extracellular space via Ca^2+ channels such as Orai1. […] Once the stores had emptied, extracellular Ca^2+ was reintroduced and Ca^2+ influx was measured (Fig. 3C–F).
(§6) Fluo-4 Ca^2+ assays. […] For global Ca^2+ measurements, baseline fluorescent readings were made for 2 min (1 read every 30 s) using a Tecan Infinite M1000 plate reader (ex 494 em 516 nm, bandwidth 5 nm) before thapsigargin (Sigma-Aldrich) was added and the change in emission was recorded for 10 min (1 read every 30 s). […] Baseline fluo-4 fluorescence was read for 2 min before cell were stimulated with thapsigargin (Tocris). Reads continued for ~5 min before 1.2 mM Ca^2+ was added to the extracellular solution and SOCE was measured for ~10 mins. For analysis, all fluo-4 fluorescence reads are normalized to baseline.

The test system of data set [6] is Ca2+ influx in CF neutrophils. The data set is described as follows: Fluo-4 Ca2+ influx across the plasma membrane, CF neutrophils. Type of data set: cell-based, human. Conditions: thapsigargin 1 μM, regardless of genotype. Here is the method:
as §2, §4, §5, §6

Data set [7] deals with SOCE, Orai1 and STIM1. Conditions: ref [49]; cited from earlier work.
In data set [8] the test system is inositol monophosphatase 2 (printed IMAP2). Conditions: no reference printed with the statement; cited from earlier work. The text has this: Increased SOCE has previously been described in CF neutrophils and may be causal for CF neutrophil hyperactivity. However, Orai1’s involvement in SOCE in neutrophils has not been extensively studied, and the impact of CFTR modulator therapies on Orai1/SOCE is not well-understood. To globally assess the impact of ETI on CF neutrophils, we first performed a proteomic analysis. This analysis identified multiple proteins that were differentially expressed in CF-derived neutrophils relative to neutrophils from non-CF participants, even though the majority of pwCF in this part of the study ha ...

Data set [9] concerns neutrophil elastase. As to conditions: neutrophil elastase; ref [20]; cited from earlier work.

Results on six molecules are retold here after PMC12998938, “Neutrophil store-operated Ca^2+ entry: A correctable biomarker of cystic fibrosis lung disease progression” (Journal of cystic fibrosis : official journal of the …, 2025).

Regarding `CC(C)(C)c1cc(C(C)(C)C)c(NC(=O)c2c[nH]c3ccccc3c2=O)cc1O` [Kalydeco], the “SOCE and bacterial killing of CF neutrophils” value in data set [1] is “sufficient to normalize SOCE and CF neutrophil bacterial killing”. Moreover, the “bacterial killing by CF neutrophils” value in data set [2] is on record as “improved”.
On to “VIRGINDMHVL [scrambled ELD607, scrambled version of ELD607 (negative control peptide)]”, for which the “inhibition of SOCE (global Ca2+ response)” value is recorded as “no effect on SOCE in either group” in data set [3] (10 μM peptide, 3 h pre-treatment, N = 10 donors) and “no effect on SOCE in either group” in data set [4] (10 μM peptide, 3 h pre-treatment, Fluo-4, N = 21 donors).
`C/C=C(/C)C(=O)O[C@H]1C(C)=C2[C@H]([C@@H]1OC(=O)CCCCCCC)[C@@](C)(OC(C)=O)C[C@H](OC(=O)CCC)[C@@]1(O)[C@H]2OC(=O)[C@@]1(C)O` [thapsigargin]: the “rate of activation (slope) of cytoplasmic Ca2+ response” value in data set [3] (vs CF p<0.001) was 0.033 ± 0.012; in data set [4] (Fluo-4, vs non-CF p<0.001), 0.085 ± 0.009. For the same molecule, in data set [4] (n = 10 non-CF, 21 CF), the “increase in cytoplasmic Ca2+ vs non-CF” value is “significantly greater increases in cytoplasmic Ca^2+ than non-CF controls”. The “Ca2+ influx relative to ER Ca2+ release, non-CF” value in data set [5] was ~ 10 fold. For the same molecule, in data set [6], the “Ca2+ influx relative to ER Ca2+ release, CF” value is recorded as ~ 10 fold.
Consider `NCCOB(c1ccccc1)c1ccccc1` [2-aminoethoxydiphenyl borate], for which, in data set [7], the “inhibition of SOCE, Orai1 and STIM1” value was “broad spectrum SOCE antagonist that also inhibits Orai1 and STIM1”.
Take `[Li]` [lithium]: the “effect of IMPA2 inhibition on inositol phosphate” value in data set [8] is recorded as “cellular accumulation of inositol phosphate”.

B1: SPLUNC1: short palate lung and nasal epithelial clone 1, endogenous protein (protein, UniProt Q9NP55 20-256, looked up)
BPI fold-containing family A …: QFGGLPVPLDQTLPLNVNPALPLSPTGLAGSLTNALSNGLLSGGLLGILENLPLLDILKPGGGTSGGLLGGLLGKVTSVIPGLNNIIDIKVTDPQLLELGLVQSPDGHRLYVTIPLGIKLQVNTPLVGASLLRLAVKLDITAEILAVRDKQERIHLVLGDCTHSPGSLQISLLDGLGPLPIQGLLDSLTGILNKVLPELVQGNVCPLVNEVLRGLDITLVHDIVNMLIHGLQFVIKV
As for B1, the “degradation by neutrophil elastase” value in data set [9] is listed as “rapidly degraded by neutrophil elastase”.
